Structures can show the parent of a compound that is named as a salt.
biological target: IRE1α (Homo sapiens (Human), UniProt O75460, D688N); assay: IRE1α TR-FRET competition binding assay (IRE1α HTRF); details: TR-FRET competition binding to kinase domain of IRE1α
Outline: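 Competition of compounds against an Alexa fluor 647 ATP-site probe (2 nM final) for the His-tagged kinase domain (0.25 nM final), detected via 2 nM Eu anti-His antibody by TR-FRET, 665 and 615 nm emission. Protein–antibody premix 1 h, 4° C; reaction 1 h, room temperature, pH 7.5 HEPES buffer.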

Chain of IRE1α (O75460 547-977 D688N): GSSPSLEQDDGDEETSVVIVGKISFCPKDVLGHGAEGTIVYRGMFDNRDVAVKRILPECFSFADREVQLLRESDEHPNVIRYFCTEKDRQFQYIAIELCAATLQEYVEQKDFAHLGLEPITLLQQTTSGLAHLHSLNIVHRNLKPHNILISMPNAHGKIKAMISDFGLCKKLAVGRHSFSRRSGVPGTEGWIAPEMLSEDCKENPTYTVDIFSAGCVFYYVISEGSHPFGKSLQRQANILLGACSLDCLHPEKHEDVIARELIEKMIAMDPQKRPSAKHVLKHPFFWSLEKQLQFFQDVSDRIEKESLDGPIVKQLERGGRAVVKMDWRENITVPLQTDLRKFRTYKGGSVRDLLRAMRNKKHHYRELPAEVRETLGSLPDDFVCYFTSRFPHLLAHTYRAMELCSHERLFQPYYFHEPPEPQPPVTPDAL

IC50 [nM]	Structure (SMILES)
3.2	CC(C)CC(=O)Nc1c(F)cc(-c2cc3cnc(N[C@H]4CC[C@H](N(C)C)CC4)nc3n(C(C)C)c2=O)c(F)c1F [Compound 59, N-(4-(2-(((1r,4r)-4-(Dimethylamino)cyclohexyl)amino)-8-isopropyl-7-oxo-7,8-dihydropyrido[2,3-d]pyrimidin-6-yl)-2,3,6-trifluorophenyl)-3-methylbutanamide]
0.2	CC(C)n1c(=O)c(-c2cc(F)c(NS(=O)(=O)CCC(F)(F)F)c(F)c2F)cc2cnc(NC3CCC(N(C)C)C(F)C3)nc21 (stereo not drawn) [Compound 60, N-(4-(2-((4-(dimethylamino)-3-fluorocyclohexyl)amino)-8-isopropyl-7-oxo-7,8-dihydropyrido[2,3-d]pyrimidin-6-yl)-2,3,6-trifluorophenyl)-3,3,3-trifluoropropane-1-sulfonamide]
0.31	CC(C)n1c(=O)c(-c2cc(F)c(NS(=O)(=O)c3ccccc3Cl)c(F)c2F)cc2cnc(N[C@@H]3CNC[C@@H](F)C3)nc21 [Compound 61, 2-Chloro-N-(2,3,6-trifluoro-4-(2-(((3S,5S)-5-fluoropiperidin-3-yl)amino)-8-isopropyl-7-oxo-7,8-dihydropyrido[2,3-d]pyrimidin-6-yl)phenyl)benzenesulfonamide hydrochloride]
2.2	CC(C)n1c(=O)c(-c2cc(F)c(NC(=O)CC3CCC3)c(F)c2F)cc2cnc(N[C@H]3CC[C@H](N(C)C)CC3)nc21 [Compound 62, 2-Cyclobutyl-N-(4-(2-(((1r,4r)-4-(dimethylamino)cyclohexyl)amino)-8-isopropyl-7-oxo-7,8-dihydropyrido[2,3-d]pyrimidin-6-yl)-2,3,6-trifluorophenyl)acetamide]
4.1	CC(C)n1c(=O)c(-c2cc(F)c(NC(=O)[C@H]3C[C@H]3F)c(F)c2F)cc2cnc(N[C@H]3CC[C@H](N(C)C)CC3)nc21 [Compound 63, (1R,2R)—N-(4-(2-(((1r,4r)-4-(Dimethylamino)cyclohexyl)amino)-8-isopropyl-7-oxo-7,8-dihydropyrido[2,3-d]pyrimidin-6-yl)-2,3,6-trifluorophenyl)-2-fluorocyclopropane-1-carboxamide hydrochloride]
0.21	CC(C)n1c(=O)c(-c2ccc(NS(=O)(=O)Cc3ccccc3)c(F)c2)nc2cnc(N[C@@H]3CNC[C@@](C)(F)C3)nc21 [Compound 64, N-(2-Fluoro-4-(2-(((3S,5S)-5-fluoro-5-methylpiperidin-3-yl)amino)-8-isopropyl-7-oxo-7,8-dihydropteridin-6-yl)phenyl)-1-phenylmethanesulfonamide]
0.24	CC(C)n1c(=O)c(-c2ccc(NS(=O)(=O)Cc3ccccc3)c(F)c2)nc2cnc(N[C@@H]3CNC[C@H](CF)C3)nc21 [Compound 65, N-(2-Fluoro-4-(2-(((3S,5R)-5-(fluoromethyl)piperidin-3-yl)amino)-8-isopropyl-7-oxo-7,8-dihydropteridin-6-yl)phenyl)-1-phenylmethanesulfonamide]
0.29	CC(C)n1c(=O)c(-c2ccc(NS(=O)(=O)CCC(C)(F)F)c(F)c2)nc2cnc(N[C@H]3CC[C@H](N(C)C)CC3)nc21 [Compound 66, N-(4-(2-(((1r,4r)-4-(Dimethylamino)cyclohexyl)amino)-8-isopropyl-7-oxo-7,8-dihydropteridin-6-yl)-2-fluorophenyl)-3,3-difluorobutane-1-sulfonamide]
0.18	CC(C)n1c(=O)c(-c2ccc(NS(=O)(=O)CCC(F)(F)F)c(F)c2)nc2cnc(N[C@H]3CC[C@H](N(C)C)CC3)nc21 [Compound 67, N-(4-(2-(((1r,4r)-4-(Dimethylamino)cyclohexyl)amino)-8-isopropyl-7-oxo-7,8-dihydropteridin-6-yl)-2-fluorophenyl)-3,3,3-trifluoropropane-1-sulfonamide]
0.13	CC(C)n1c(=O)c(-c2ccc(NS(=O)(=O)Cc3ccccc3)c(F)c2)nc2cnc(N[C@H]3CC[C@H](N(C)C)CC3)nc21 [Compound 68, N-(4-(2-(((1r,4r)-4-(Dimethylamino)cyclohexyl)amino)-8-isopropyl-7-oxo-7,8-dihydropteridin-6-yl)-2-fluorophenyl)-1-phenylmethanesulfonamide]
98	CCn1c(=O)c(-c2cc(NS(=O)(=O)Cc3ccccc3)nn2C)cc2cnc(N[C@@H]3CNC[C@@H](F)C3)nc21 [Compound 69, N-(5-(8-ethyl-2-(((3S,5S)-5-fluoropiperidin-3-yl)amino)-7-oxo-7,8-dihydropyrido[2,3-d]pyrimidin-6-yl)-1-methyl-1H-pyrazol-3-yl)-1-phenylmethanesulfonamide]
0.26	CC(C)n1c(=O)c(-c2cc(F)c(NS(=O)(=O)CCC(F)(F)F)c(F)c2)cc2cnc(N[C@H]3CC[C@H](N(C)C)CC3)nc21 [Compound 70, N-(4-(2-(((1,4-trans)-4-(Dimethylamino)cyclohexyl)amino)-8-isopropyl-7-oxo-7,8-dihydropyrido[2,3-d]pyrimidin-6-yl)-2,6-difluorophenyl)-3,3,3-trifluoropropane-1-sulfonamide]
0.25	CC(C)n1c(=O)c(-c2cc(F)c(NS(=O)(=O)CCC(F)(F)F)cc2F)cc2cnc(N[C@H]3CC[C@H](N(C)C)CC3)nc21 [Compound 71, N-(4-(2-(((1,4-trans)-4-(Dimethylamino)cyclohexyl)amino)-8-isopropyl-7-oxo-7,8-dihydropyrido[2,3-d]pyrimidin-6-yl)-2,5-difluorophenyl)-3,3,3-trifluoropropane-1-sulfonamide formate]
0.5	Cc1cc(-c2nc3cnc(N[C@@H]4CNC[C@@H](F)C4)nc3n(C(C)C)c2=O)cc(F)c1NS(=O)(=O)Cc1ccccc1 [Compound 72, N-[2-Fluoro-4-[2-[[(3S,5S)-5-fluoro-3-piperidyl]amino]-8-isopropyl-7-oxo-pteridin-6-yl]-6-methyl-phenyl]-1-phenyl-methanesulfonamide]
0.5	CC(C)n1c(=O)c(-c2ccc(NS(=O)(=O)CCC(F)(F)F)c(F)c2)nc2cnc(N[C@@H]3CNC[C@@H](F)C3)nc21 [Compound 73, 3,3,3-Trifluoro-N-[2-fluoro-4-[2-[[(3S,5S)-5-fluoro-3-piperidyl]amino]-8-isopropyl-7-oxo-pteridin-6-yl]phenyl]propane-1-sulfonamide]
0.6	CC(C)n1c(=O)c(-c2ccc(NS(=O)(=O)c3ccccc3)c(F)c2)nc2cnc(N[C@@H]3CNC[C@@H](F)C3)nc21 [Compound 74, N-[2-Fluoro-4-[2-[[(3S,5S)-5-fluoro-3-piperidyl]amino]-8-isopropyl-7-oxo-pteridin-6-yl]phenyl]benzenesulfonamide]
0.3	CC(C)n1c(=O)c(-c2ccc(NS(=O)(=O)c3ccccc3Cl)c(F)c2)nc2cnc(N[C@@H]3CNC[C@@H](F)C3)nc21 [Compound 75, 2-Chloro-N-[2-fluoro-4-[2-[[(3S,5S)-5-fluoro-3-piperidyl]amino]-8-isopropyl-7-oxo-pteridin-6-yl]phenyl]benzenesulfonamide]
0.9	CC(C)n1c(=O)c(-c2ccc(NS(=O)(=O)CCC(F)(F)F)c(F)c2)nc2cnc(N[C@@H]3CNC[C@H](CF)C3)nc21 [Compound 76, 3,3,3-Trifluoro-N-[2-fluoro-4-[2-[[(3S,5R)-5-(fluoromethyl)-3-piperidyl]amino]-8-isopropyl-7-oxo-pteridin-6-yl]phenyl]propane-1-sulfonamide]

Reference: US12344603B2 (Genentech, Inc., priority 2020, dated 2025)
